Tests used:
[1] = tested on: Streptococcus mutans biofilm; assay: Streptococcus mutans biofilm formation, 0.1% crystal violet staining; format: cell-based; details: 37° C., 24 hours; for S. mutans biofilm formation (crystal violet), single or co-treatment: 10 μg/ml HBD3-C15, 25 μg/ml CH, 0.02% CHX, or combination, FIG. 2A
Experimental: To confirm the effect of HBD3-C15 on a Streptococcus mutans biofilm, Streptococcus mutans was cultured in a Brain Heart Infusion (BHI) medium. The cultured Streptococcus mutans was prepared at 1×10^7 CFU/ml, and then 1% NaCl or 0.05% sucrose was added thereto to promote biofilm formation, followed by treatment with 50 μg/ml of HBD3-C15. After incubation at 37° C. for 24 hours, 0.1% crystal violet staining was performed for comparison of the degree of biofilm formation.
In addition, 0.05% sucrose was added to Streptococcus mutans, followed with treatment with HBD3-C15 at a concentration of 10 μg/ml, 30 μg/ml, or 50 μg/ml. After incubation at 37° C. for 24 hours, 0.1% crystal violet staining was performed for comparison of the degree of biofilm formation.
To determine whether HBD3-C15 is capable of inhibiting a biofilm by synergistic effects with calcium hydroxide (CH) or chlorohexidine (CHX), which is an existing dental therapeutic agent, Streptococcus mutans was cultured in a BHI medium and then prepared at 1×10^7 CFU/ml, and treated with 10 μg/ml of HBD3-C15, 25 μg/ml of CH, 0.02% CHX, or a combination thereof in the presence of 0.05% sucrose. After incubation at 37° C. for 24 hours, 0.1% crystal violet staining was performed for comparison of the degree of biofilm formation.

[2] = tested on: Streptococcus mutans biofilm; assay: Streptococcus mutans biofilm formation, confocal microscope; format: cell-based; details: HBD3-C15 at 10, 30 or 50 μg/ml; 0.05% sucrose; FIG. 1C
[3] = tested on: Streptococcus gordonii biofilm; assay: Streptococcus gordonii biofilm formation on dentin sections, scanning electron microscope; format: cell-based; details: 1×10^8 CFU/ml; 10 μg/ml HBD3-C15, 25 μg/ml CH, 0.02% CHX, or combination; 37° C., 24 hours; FIG. 3
Experimental: (§1) To confirm whether the Streptococcus mutans biofilm inhibition through synergistic effects of HBD3-C15 and an existing dental therapeutic agent is reproduced in the formation of biofilms formed by other dental infectious bacteria, Enterococcus faecalis and Streptococcus gordonii were cultured in a BHI medium and a Todd Hewitt yeast (THY) medium, respectively, and then E. faecalis and S. gordonii were prepared at 5×10^6 CFU/ml and 1×10^8 CFU/ml, respectively, and treated, on the dentin sections, with 10 μg/ml of HBD3-C15, 25 μg/ml of CH, 0.02% CHX, or a combination thereof. After incubation at 37° C. for 24 hours, comparison of the degree of biofilm formation was conducted using a scanning electron microscope.

[4] = tested on: Streptococcus mutans biofilm; assay: Streptococcus mutans biofilm formation on human teeth dentin sections, scanning electron microscope; format: cell-based; details: 10 μg/ml HBD3-C15, 25 μg/ml CH, 0.02% CHX, or combination; 0.05% sucrose; 37° C., 24 hours; FIG. 2B
Experimental: In addition, human teeth dentin sections were prepared to represent an actual oral infection situation, 1×10^7 CFU/ml of Streptococcus mutans was treated, on the dentin sections, with 10 μg/ml of HBD3-C15, 25 μg/ml of CH, 0.02% CHX, or a combination thereof in the presence of 0.05% sucrose. After incubation at 37° C. for 24 hours, comparison of the degree of biofilm formation was conducted using a scanning electron microscope.

[5] = tested on: Enterococcus faecalis biofilm; assay: Enterococcus faecalis biofilm formation on dentin sections, scanning electron microscope; format: cell-based; details: 5×10^6 CFU/ml; 10 μg/ml HBD3-C15, 25 μg/ml CH, 0.02% CHX, or combination; 37° C., 24 hours; FIG. 3
Experimental: as §1

[6] = Tooth discoloration of treated dentin sections, photographed; set-up: species or system human; details: 30 μg/ml HBD3-C15, 0.002% CHX, 0.02% CHX, or combination (2% CHX positive control), 37° C., 7 days, FIG. 5
Experimental: According to previous papers, it has been reported that CHX, which is a typical dental therapeutic agent, causes side effects such as tooth discoloration. Thus, to confirm the effect of treatment with HBD3-C15 alone or a combination of HBD3-C15 and CHX on tooth discoloration, dentin sections were treated with 30 μg/ml of HBD3-C15, 0.002% CHX, 0.02% CHX, or a combination thereof, and 2% CHX was used as a positive control. Subsequently, the dentin sections were cultured at 37° C. for 7 days and photographed to observe the degree of tooth discoloration.

Compound	S. mutans biofilm formation (crystal violet), single or co-treatment ([1]; 0.05% sucrose)	formation of Streptococcus mutans biofilm (crystal violet) ([1]; 50 μg/ml HBD3-C15, biofilm promoted by 0.05% sucrose, FIG. 1A)	formation of Streptococcus mutans biofilm (crystal violet) ([1]; 50 μg/ml HBD3-C15, biofilm promoted by 1% NaCl, FIG. 1A)	formation of Streptococcus mutans biofilm (crystal violet) ([1]; HBD3-C15 at 10, 30 or 50 μg/ml, 0.05% sucrose, FIG. 1B)	formation of Streptococcus mutans biofilm (confocal microscope) [2]	S. gordonii biofilm formation on dentin sections (SEM), single or co-treatment [3]	S. mutans biofilm formation on dentin sections (SEM), single or co-treatment [4]	E. faecalis biofilm formation on dentin sections (SEM), single or co-treatment [5]	tooth discoloration [6]
G-K-C-S-T-R-G-R-K-C-C-R-R-K-K [HBD3-C15]	inhibited	inhibited	inhibited	inhibited in a concentration-dependent manner	inhibit formation of a biofilm in a concentration-dependent manner	inhibited	inhibited	inhibited	
[Ca+2].[OH-].[OH-] [CH, calcium hydroxide]	inhibited					inhibited	inhibited	inhibited	
N=C(NCCCCCCNC(=N)NC(=N)Nc1ccc(Cl)cc1)NC(=N)Nc1ccc(Cl)cc1 [CHX, chlorohexidine]	inhibited					inhibited	inhibited	inhibited	induced by treatment with CHX alone in a concentration-dependent manner

From patent US10821065B2, “Peptide for inhibiting biofilms” (SEOUL NATIONAL UNIVERSITY R&DB FOUNDATION, priority 2017, dated 2020)
